The values below come from PubChem BioAssay AID330 (DTP/NCI, 2004).

The assay relates to P388 leukemia ip, CD2F1 mice, survival T/C. In words: NCI In Vivo Anticancer Drug Screen. Data for tumor model P388 Leukemia (intraperitoneal) in CD2F1 (CDF1) mice. The following applies: endpoint: median survival time, higher = longer survival. A digest of the protocol: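 Mice carrying the transplanted tumor received test compound or vehicle. Survival was recorded in each group, and the value is the treated-group measurement divided by that of the vehicle-treated control group.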

Where [1] appears, read: dose: 100.0 mg/kg/injection, schedule: Q01DX001 (ip), vehicle: saline with Tween-80.
Where [2] appears, read: dose: 200.0 mg/kg/injection, schedule: Q01DX001 (ip), vehicle: saline with Tween-80.
Setting [3] is: dose: 400.0 mg/kg/injection, schedule: Q01DX001 (ip), vehicle: saline with Tween-80.
Where [4] appears, read: dose: 60.0 mg/kg/injection, schedule: Q01DX005 (ip), vehicle: Klucel (hydroxypropylcellulose) (HPC).
[5] abbreviates: dose: 120.0 mg/kg/injection, schedule: Q01DX005 (ip), vehicle: Klucel (hydroxypropylcellulose) (HPC).
The mark [6] stands for this setting: dose: 240.0 mg/kg/injection, schedule: Q01DX005 (ip), vehicle: Klucel (hydroxypropylcellulose) (HPC).
[7] abbreviates: dose: 50.0 mg/kg/injection, schedule: Q01DX009 (ip), vehicle: Klucel (hydroxypropylcellulose) (HPC).
[8] abbreviates: dose: 100.0 mg/kg/injection, schedule: Q01DX009 (ip), vehicle: Klucel (hydroxypropylcellulose) (HPC).
Setting [9] is: dose: 200.0 mg/kg/injection, schedule: Q01DX009 (ip), vehicle: Klucel (hydroxypropylcellulose) (HPC).
Where [10] appears, read: dose: 50.0 mg/kg/injection, schedule: Q01DX005 (ip), vehicle: saline with Tween-80.
[11] abbreviates: dose: 100.0 mg/kg/injection, schedule: Q01DX005 (ip), vehicle: saline with Tween-80.
[12] abbreviates: dose: 200.0 mg/kg/injection, schedule: Q01DX005 (ip), vehicle: saline with Tween-80.
Setting [13] is: dose: 25.0 mg/kg/injection, schedule: Q01DX005 (ip), vehicle: saline with Tween-80.
Where [14] appears, read: dose: 50.0 mg/kg/injection, schedule: Q01DX005 (ip), vehicle: saline.
[15] abbreviates: dose: 100.0 mg/kg/injection, schedule: Q01DX005 (ip), vehicle: saline.
The mark [16] stands for this setting: dose: 200.0 mg/kg/injection, schedule: Q01DX005 (ip), vehicle: saline.
Setting [17] is: dose: 60.0 mg/kg/injection, schedule: Q01DX005 (ip), vehicle: saline with Tween-80.
[18] abbreviates: dose: 120.0 mg/kg/injection, schedule: Q01DX005 (ip), vehicle: saline with Tween-80.
Where [19] appears, read: dose: 100.0 mg/kg/injection, schedule: Q01DX009 (ip), vehicle: suspension in saline.
Where [20] appears, read: dose: 200.0 mg/kg/injection, schedule: Q01DX009 (ip), vehicle: suspension in saline.
Where [21] appears, read: dose: 25.0 mg/kg/injection, schedule: Q01DX009 (ip), vehicle: Klucel (hydroxypropylcellulose) (HPC).
[22] abbreviates: dose: 12.5 mg/kg/injection, schedule: Q01DX009 (ip), vehicle: Klucel (hydroxypropylcellulose) (HPC).

Where “and” joins values, the source holds several entries; their conditions need not be identical. Equal values may be shown once. Toxic doses and inconclusive results are not listed. Peptide text beside a SMILES is read from it. * marks the point of attachment. Trt = c1ccc(C(c2ccccc2)(c2ccccc2)*)cc1

With `COC(=O)C(=O)c1cc(=O)[nH]c(NC(C)=O)n1`, the T/C reads like this: under setting [1], 107 % of control; under setting [2], 101 % of control; under setting [3], 107 % of control.
As to `O=c1[nH]cc(CCCc2ccccc2)c(=O)[nH]1`, the T/C is 102 % of control under setting [4], 95 % of control under setting [5] and 95 % of control under setting [6].
As for `NS(=O)(=O)c1ccc(NC(=O)Nc2c(Cl)cccc2Cl)cc1`, the T/C is 96 % of control under setting [7], 87 % of control under setting [8] and 95 % of control under setting [9].
On to `CCC(C)/C(=C\C#N)NCCN/C(=C/C#N)C(C)CC` (configuration not stated), for which the T/C was 94 % of control under setting [4], 91 % of control under setting [5] and 89 % of control under setting [6].
As for `COc1ccc2nc(Cl)c(CBr)c(CBr)c2c1`, the T/C by setting is: (dose: 12.5 mg/kg/injection, schedule: Q01DX005 (ip), vehicle: Klucel (hydroxypropylcellulose) (HPC)) 98 % of control; (dose: 50.0 mg/kg/injection, schedule: Q01DX005 (ip), vehicle: Klucel (hydroxypropylcellulose) (HPC)) 117 % of control.
As for `O=C(O)Cc1cn2cc(Br)cc(Br)c2n1`, the T/C runs as follows: under setting [1], 109 % of control; under setting [2], 97 % of control; under setting [3], 98 % of control.
For `CC(NNC(=S)N1CCCC1)c1ccc2ccccc2n1` (configuration not stated), the T/C was 94 % of control under setting [10], 94 % of control under setting [11] and 94 % of control under setting [12].
For the compound `O=C(c1cccs1)C1NO[N+]([O-])=C1c1cccs1` (configuration not stated), the T/C reads like this: (dose: 6.25 mg/kg/injection, schedule: Q01DX005 (ip), vehicle: saline with Tween-80) 100 % of control; (dose: 12.5 mg/kg/injection, schedule: Q01DX005 (ip), vehicle: saline with Tween-80) 106 % of control; under setting [13], 115 % of control.
Consider `CS(=O)CCC(N)P(=O)(O)O` (configuration not stated), for which the T/C by setting is: under setting [14], 92 % of control; under setting [15], 99 % of control; under setting [16], 99 % of control.
In the case of `C=C1C(OC(=O)c2ccccc2)C2[C@@H](OC(=O)CC)[C@@H](C)C[C@]2(O)C(=O)[C@@H](C)/C=C/C(C)(C)C(=O)C(O)[C@H]1OC(=O)C(C)C` (some centres not stated), the T/C under setting [17] was 102 % of control and the T/C under setting [18] is 91 % of control.
Consider `CC(C(O)c1cc2c(c3ccccc13)CCCC2)N1CCOCC1` (configuration not stated), for which the T/C is 104 % of control under setting [19]; 99 % of control under setting [20]; 104 % of control (dose: 400.0 mg/kg/injection, schedule: Q01DX009 (ip), vehicle: suspension in saline).
For the compound `CC(C)c1ccccc1[S+]1OC(C)(C)c2ccccc21` (configuration not stated), the T/C is 107 % of control under setting [7], 103 % of control under setting [8] and 95 % of control under setting [9].
Consider `Nc1ccccc1-c1nc2ccncc2[nH]1`, for which the T/C reads like this: under setting [21], 102 % of control; under setting [7], 105 % of control; under setting [8], 101 % of control; under setting [9], 100 % of control.
For the compound `CC1CC=CCC1C1NC(C(=O)O)CS1` (configuration not stated), the T/C is 106 % of control (dose: 50.0 mg/kg/injection, schedule: Q01DX009 (ip), vehicle: suspension in saline); 107 % of control and 88 % of control under setting [19]; 98 % of control and 96 % of control under setting [20].
On to `CCOc1cc2c(cc1C(C)c1ccc(OC)cc1)OCO2` (configuration not stated), for which the T/C is 96 % of control (dose: 25.0 mg/kg/injection, schedule: Q01DX005 (ip), vehicle: distilled water + alcohol); 100 % of control and 119 % of control (dose: 50.0 mg/kg/injection, schedule: Q01DX005 (ip), vehicle: distilled water + alcohol); 123 % of control (dose: 100.0 mg/kg/injection, schedule: Q01DX005 (ip), vehicle: distilled water + alcohol); 92 % of control (dose: 200.0 mg/kg/injection, schedule: Q01DX005 (ip), vehicle: distilled water + alcohol).
As for `CSc1nc2c(Cl)ncnc2s1`, the T/C under setting [17] is 96 % of control and the T/C under setting [18] is 96 % of control.
Turning to `Brc1ncc2[nH]cnc2n1`, the T/C is 99 % of control under setting [10] and 100 % of control under setting [11].
Turning to `CCN(CC)c1ccc2cc3ccc(=[N+](CC)CC)cc-3oc2c1`, the T/C (dose: 1.0 mg/kg/injection, schedule: Q01DX009 (ip), vehicle: saline) was 109 % of control.
Take `CCOC(=S)/N=C1/SCS(=O)(=O)N1c1ccccc1`: the T/C is, setting by setting: (dose: 50.0 mg/kg/injection, schedule: Q04DX003 (ip), vehicle: saline with Tween-80) 99 % of control; (dose: 100.0 mg/kg/injection, schedule: Q04DX003 (ip), vehicle: saline with Tween-80) 95 % of control; (dose: 200.0 mg/kg/injection, schedule: Q04DX003 (ip), vehicle: saline with Tween-80) 98 % of control.
As to `CCOC1c2cc3c(cc2NC(=O)N1C)OCO3` (configuration not stated), the T/C is, setting by setting: (dose: 37.5 mg/kg/injection, schedule: Q01DX009 (ip), vehicle: saline with Tween-80) 97 % of control; (dose: 75.0 mg/kg/injection, schedule: Q01DX009 (ip), vehicle: saline with Tween-80) 94 % of control; (dose: 150.0 mg/kg/injection, schedule: Q01DX009 (ip), vehicle: saline with Tween-80) 100 % of control.
In the case of `COc1c(I)c2c(c(OC)c1OC)-c1ccc(OC)c(=O)cc1C(NC(C)=O)CC2` (configuration not stated), the T/C by setting is: (dose: 6.25 mg/kg/injection, schedule: Q01DX009 (ip), vehicle: Klucel (hydroxypropylcellulose) (HPC)) 178 % of control; under setting [22], 167 % of control.
`COC(=O)C(CC(C)C)NC(=O)C(N)CSC(c1ccccc1)(c1ccccc1)c1ccccc1` (configuration not stated) (H-Cys(Trt)-Leu-OMe; configuration not given here): the T/C under setting [4] is 113 % of control.
Turning to `COc1cccc2c1C(=O)c1c(O)c3c(c(O)c1C2=O)C[C@@](O)(C(C)=O)C[C@@H]3OC1CC(N(C)Cc2ccccc2)C(O)C(C)O1` (some centres not stated), the T/C runs as follows: (dose: 3.13 mg/kg/injection, schedule: Q04DX003 (ip), vehicle: distilled water + Tween-80) 111 % of control; (dose: 6.25 mg/kg/injection, schedule: Q04DX003 (ip), vehicle: distilled water + Tween-80) 101 % of control; (dose: 12.5 mg/kg/injection, schedule: Q04DX003 (ip), vehicle: distilled water + Tween-80) 118 % of control; (dose: 25.0 mg/kg/injection, schedule: Q04DX003 (ip), vehicle: distilled water + Tween-80) 172 % of control.
As to `O=C(NC1CCCCC1)C1C(=O)C(=O)N(C2CCCCC2)C1=O` (configuration not stated), the T/C runs as follows: under setting [10], 105 % of control; under setting [11], 98 % of control.
Consider `COc1cc(CC(C)N)ccc1O` (configuration not stated), for which the T/C (dose: 12.5 mg/kg/injection, schedule: Q01DX009 (ip), vehicle: saline with Tween-80) was 100 % of control; the T/C (dose: 25.0 mg/kg/injection, schedule: Q01DX009 (ip), vehicle: saline with Tween-80) is 99 % of control; the T/C (dose: 50.0 mg/kg/injection, schedule: Q01DX009 (ip), vehicle: saline with Tween-80) is 104 % of control; the T/C (dose: 100.0 mg/kg/injection, schedule: Q01DX009 (ip), vehicle: saline with Tween-80) is 95 % of control.
Turning to `NC(=S)NNCCC(=O)Nc1ccccc1C(F)(F)F`, the T/C is 94 % of control under setting [17]; 94 % of control under setting [18]; 96 % of control (dose: 240.0 mg/kg/injection, schedule: Q01DX005 (ip), vehicle: saline with Tween-80).
Regarding `OC1(c2ccccc2)c2ccccc2NC2=NCCN21` (configuration not stated), the T/C under setting [13] was 105 % of control, the T/C under setting [10] was 96 % of control, the T/C under setting [11] is 104 % of control and the T/C under setting [12] was 97 % of control.
In the case of `O=c1[nH]c(=O)n(C2CC(O)C(CO)O2)cc1N1CCOCC1` (configuration not stated), the T/C under setting [14] was 108 % of control, the T/C under setting [15] is 101 % of control and the T/C under setting [16] was 108 % of control.
Consider `COC1C2CC3C4(CCC5C6(C)CCCC53C(C14)N(C)C6)CC21CCC23C4C=C5C6=C(CCC5(CC42)C3O1)C1(C)CC(C6)CN(C)C1` (configuration not stated), for which the T/C runs as follows: under setting [22], 91 % of control; under setting [21], 94 % of control; under setting [7], 98 % of control.
